Results from patent publication US10961507B2, “Method for producing hepatic stem/precursor cells from mature hepatic cells using low-molecular-weight compound” (Cynity Co., Ltd., priority 2016, dated 2021).

Test system: CYP1A in Hep-i(+) cells
Assay: Determination of CYP1A activity and CYP1A1/CYP1A2 gene expression after 3-MC treatment
Type: cell-based, rat
Conditions: 5 μM for 4 days
Method: In order to induce CYP1A activity, cells on Day 8 of hepatocyte induction were treated with 5 μM 3-methylcholanthrene (3-MC) (Sigma) for 4 days (the medium was exchanged on the second day). The control cells were treated only with DMSO as a solvent. Four days later, P450-G1o CYP1A1 Assay (Luciferin-CEE) was used to determine CYP1A activity. According to the manufacturer's instruction, this kit can detect CYP1A2 activity more efficiently than CYP1A1 activity. Following CYP1A activity, the DNA content of the cells was measured to normalize the CYP activity. In order to examine the responsiveness to 3-MC, fold changes in activity were calculated as [mean luminescence in the presence of 3-MC/mean luminescence in the absence of 3-MC] for 3 wells/condition in each experiment to determine an average value for five independent experiments. In two experiments, total RNA was isolated to assess the gene expression levels of CYP1A1 and CTP1A2.

Cc1ccc2cc3c(ccc4ccccc43)c3c2c1CC3 [3-MC, 3-methylcholanthrene]
CYP1A1 and CYP1A2 gene expressions in response to stimulation: efficiently induced | CYP1A activity in response to stimulation: efficiently induced
